Drawing on the Bradley open melting point set (2014), this text covers melting point for 93 molecules.

In turn, `CCCSC` [methyl n-propyl sulfide] registered a melting point of -113 °C. Then `Brc1ccc(Br)cc1` [1,4-dibromobenzene], with 88 °C. In the case of `OCCCCCCO` [Hexane-1,6-Diol], the melting point was 45 °C.

`CON=C(/c1ccco1)C(=O)N[C@@H]3C(=O)N2C(=C(COC(N)=O)CS[C@@H]23)C(=O)O` [Cefuroxime] gave a melting point of 222 °C. To `B1Oc2ccccc2O1` [catecholborane] belongs 12 °C. `O=[O+][O-]` [Trioxid-2-en-2-ium-1-ide] came in with a melting point of -193 °C. Then `Cc1ccccc1C(=O)O` [o-toluic acid], with 105 °C; and `Cc1cccc(N/N=C(\C#N)c2nc(-c3ccc(Cl)cc3)cs2)c1`, with 158 °C. Then `OB(O)c1ccccc1F` [2-fluorobenzeneboronic acid], with 104 °C.

Take `CCC(=O)CC` [3-pentanone]: the melting point was -39 °C.

`O[C@@H]1CO[C@H]2[C@@H]1OC[C@@H]2O` [D-isosorbide]: the melting point amounted to 60 °C. Then `CC(C)(C)c1ccc(N)cc1` [4-tert-butylaniline], with 16 °C; and `CC(CN1c2ccccc2Sc2ccccc21)N(C)C` (stereo not drawn) [promethazine], with 60 °C. Then `O=C(O)c1ccc(F)cc1` [4-fluorobenzoic acid], with 185 °C; and `Nc1nc2ccc([N+](=O)[O-])cc2s1` [2-Amino-6-nitrobenzothiazole], with 248 °C; and `CCOc1ccc([N+](=O)[O-])cc1Br` [2-bromo-4-nitrophenetole], with 55 °C. Then `OC[C@H]1O[C@@H](Oc2ccccc2)[C@H](O)[C@@H](O)[C@H]1O` [phenyl beta-D-galactopyranoside], with 154 °C; and `O=C1c2ccccc2-c2ccccc21` [9-fluorenone], with 83 °C; and `CCCCCCCCCCCCCCCCI` [1-Iodohexadecane], with 22 °C. `OB(O)c1ccc(F)c(Cl)c1` [3-chloro-4-fluorobenzeneboronic acid]: the melting point was found to be 258 °C. The molecule `Oc1ccccc1C(F)(F)F` [2-(trifluoromethyl)phenol] showed a melting point of 46 °C. Take `CCCCCCCCCCCCI` [1-iodododecane]: the melting point is 0 °C. To `CCC(O)C(C)(C)C` (stereo not drawn) [2,2-dimethyl-3-pentanol] belongs -5 °C; to `COC(=O)c1cc(Cl)ccc1N` [methyl 2-amino-5-chlorobenzoate], 69 °C; to `O=C(O)c1c(F)cccc1C(F)(F)F` [2-fluoro-6-(trifluoromethyl)benzoic acid], 86 °C. Consider `N#CC(=CNNc1ccccc1)c1ccccc1` [2-phenyl-3-(2-phenylhydrazino)prop-2-enenitrile], for which the melting point is 156 °C. Turning to `COc1cccc(C(C)=O)c1` [3'-methoxyacetophenone], the melting point was -7 °C. To `CCN(CC)C(=O)Nc1ccc(OCC(O)CNC(C)(C)C)c(C(C)=O)c1` (stereo not drawn) [celiprolol] belongs 110 °C; to `Cc1ccc(Cl)c(Cl)c1` [3,4-dichlorotoluene], -15 °C; to `Cc1ccccc1Br` [2-bromotoluene], -27 °C. Consider `CCCCOC(=O)c1ccc(N)cc1` [butamben], for which the melting point came to 58 °C. As to `CN1[C@@H]2CC[C@H]1CC(=O)C2` [Tropinone], the melting point amounted to 43 °C.

Consider `Cc1ccc(cc1NC(=O)/C=CC(=O)O)Cl` [N-(5-chloro-2-methylphenyl)maleamic acid], for which the melting point is 120 °C. Then `O=[N+]([O-])c1c(Br)sc(Br)c1[N+](=O)[O-]` [2,5-dibromo-3,4-dinitrothiophene], with 136 °C; and `c1c[nH]nn1` [1,2,3-triazole], with 24 °C; and `CCCCOCCOCCOC(C)=O` [2-(2-n-butoxyethoxy)ethyl acetate], with -32 °C. To `Cc1cc(C)nc(C)c1` [2,4,6-collidine] belongs -43 °C; to `O=C1CCCCCN1` [epsilon-caprolactam], 70 °C. To `CC1CCC(C(C)C)C(OC(=O)C2(C)CCC(C)C2(C)C)C1` (stereo not drawn) belongs 50 °C; to `SCc1ccc(Cl)cc1` [4-chlorobenzyl mercaptan], 20 °C. For the molecule `CC12CCC(/C(=C/N(O)c3ccccc3)C1=O)C2(C)C` (stereo not drawn), the melting point amounted to 107 °C.

For the molecule `Cc1cc(C)nc(NS(=O)(=O)c2ccc(N)cc2)n1` [sulfamethazine], the melting point amounted to 200 °C. To `NNC(=O)c1ccncc1` [isoniazid] belongs 171 °C. Molecule `NC1=NCC(c2ccccc2)O1` (stereo not drawn) [aminorex] displayed a melting point of 136 °C. As to `Cc1cccc(C(=O)O)c1` [3-Methylbenzoic acid], the melting point was 110 °C. Consider `CCCc1cc(Br)c(N)c(Br)c1` [2,6-dibromo-4-n-propylaniline], for which the melting point turned out to be 56 °C. `C[C@]12CC[C@@H]3c4ccc(O)cc4CC[C@H]3[C@@H]1CCC2=O` [estrone] displayed a melting point of 255 °C.

As to `c1csc(P(c2cccs2)c2cccs2)c1` [tris(2-thienyl)phosphine], the melting point was determined as 29 °C. Then `Clc1ccc(-c2ccc(Cl)cc2)cc1` [PCB-15], with 149 °C; and `S=C=Nc1ccc(Cl)c(Cl)c1Cl` [2,3,4-trichlorophenyl isothiocyanate], with 70 °C; and `c1ccc2cc3c(ccc4ccccc43)cc2c1` [benzanthracene], with 160 °C.

The molecule `Nc1ccc2ccc3cccc4ccc1c2c34` [1-aminopyrene] gave a melting point of 118 °C. To `O=C(CCCN1CCC2(CC1)C(=O)NCN2c1ccccc1)c1ccc(F)cc1` [spiperone] belongs 190 °C; to `Brc1cccc(I)c1` [m-bromoiodobenzene], -9 °C; to `CCOC(=O)/C(C#N)=C\c1ccc(-c2ccc(C)cc2)o1` [Ethyl (2Z)-2-cyano-3-[5-(4-methylphenyl)-2-furyl]acrylate], 124 °C. Consider `N#Cc1ccncc1Cl` [3-chloro-4-cyanopyridine], for which the melting point came out at 73 °C. Then `COC(=O)c1cc(C)[nH]n1` [1H-pyrazole-3-carboxylic acid, 5-methyl-, methyl ester], with 107 °C. `COC` [Dimethyl ether]: the melting point is -138 °C.

In the case of `CCCC(=O)OCC` [Ethyl butyrate], the melting point is -93 °C.

`CSc1cccc(B(O)O)c1` [3-(methylthio)benzeneboronic acid]: the melting point turned out to be 160 °C. Then `COc1ccc(C(=O)O)cc1` [4-methoxybenzoic acid], with 185 °C; and `C=C(C)C(=O)OC(O)CC` (stereo not drawn) [1-Hydroxypropyl methacrylate], with -58 °C; and `CCN(O)CC` [N,N-diethylhydroxylamine], with -25 °C. For `Nc1ccccc1S` [2-aminothiophenol], the melting point stood at 19 °C.

With `C/C(C)=C(/C)C` [2,3-dimethyl-2-butene], the melting point was -74 °C. Then `CC(=O)Nc1ccc(O)cc1` [4-acetamidophenol], with 169 °C; and `NC1CCCC1` [cyclopentylamine], with -85 °C; and `COC(=O)c1ccc(Br)cc1` [methyl_4-bromobenzoate], with 81 °C.

`O=C1CCN(C(=O)c2ccccc2)CC1` [1-benzoyl-4-piperidone] came in with a melting point of 55 °C. `CCC1(CCC(C)C)C(=O)NC(=O)NC1=O` [amobarbital]: the melting point amounted to 156 °C. With `CC(C)(C)OC(=O)N[C@@H](CO)Cc1ccccc1` [N-boc-D-phenylalaninol], the melting point turned out to be 95 °C. Then `N#CCc1ccc([N+](=O)[O-])cc1` [p-nitrophenylacetonitrile], with 116 °C; and `CC1(C)CCCC(C)(C)N1` [2,2,6,6-tetramethylpiperidine], with -59 °C.

On to `O=Cc1cccc2ccccc12` [1-naphthaldehyde], for which the melting point is 2 °C. `Clc1ccc2ncccc2c1` [6-chloroquinoline]: the melting point turned out to be 35 °C. For the molecule `c1ccc([Si]2(c3ccccc3)O[Si](c3ccccc3)(c3ccccc3)O[Si](c3ccccc3)(c3ccccc3)O2)cc1` [hexaphenylcyclotrisiloxane], the melting point was 180 °C.

`CC(=O)Nc1cccc(F)c1` [3'-fluoroacetanilide]: the melting point is 88 °C.

In the case of `COc1cc(C(=O)O)cc(OC)c1OC` [Eudesmic acid], the melting point was determined as 172 °C. `CCCCCCCCCCCCCCCCCCCCC` [N-heneicosane] yielded a melting point of 41 °C.

`CCCOC1CCC2C3CCC4=CC(O)CCC4(C)C3CCC12C` (stereo not drawn) [17-propoxyandrost-4-en-3-ol]: the melting point was found to be 125 °C. The molecule `OB(O)c1ccc(Br)cc1` [4-bromobenzeneboronic acid] displayed a melting point of 284 °C. Consider `CO` [Methanol], for which the melting point was -98 °C. With `CCC(Br)CBr` (stereo not drawn) [1,2-dibromobutane], the melting point was -65 °C.

`CC1(C)c2ccccc2Oc2ccccc21` [9,9-dimethylxanthene] had a melting point of 42 °C. To `Oc1cccc2ccccc12` [1-naphthol] belongs 96 °C; to `Nc1ncc(C(F)(F)F)cc1Br` [2-amino-3-bromo-5-(trifluoromethyl)pyridine], 100 °C; to `Nc1ccc(C=C/C(=N/O)c2ccccc2)cc1` [4-[(3Z)-3-(hydroxyimino)-3-phenylprop-1-en-1-yl]aniline], 139 °C. For the molecule `Oc1cccc(Br)c1` [m-bromophenol], the melting point stood at 31 °C. Turning to `CC(C)(C)OOC(C)(C)C` [Di-tert-butyl peroxide], the melting point is -40 °C. Then `O=C(c1ccc(Cl)cc1)c1nn(-c2ccccc2)/c(=N\N=C\c2ccc(F)cc2)s1`, with 151 °C; and `CCO[SiH](OCC)OCC` [triethoxysilane], with -170 °C; and `Oc1c(Br)cc(Br)cc1Br` [2,4,6-tribromophenol], with 89 °C. Then `NC(c1ccccc1)c1ccccc1` [aminodiphenylmethane], with 12 °C.
